IC50 data for 14 compounds are collected here from patent US10167293B2, “[8-(phenylsulfonyl)-3,8-diazabicyclo[3.2.1]oct-3-yl](1H-1,2,3-triazol-4-yl)methanones” (BAYER PHARMA AKTIENGESELLSCHAFT, priority 2016, dated 2019).

The target in the assay is recombinant human AKR1C3 (Homo sapiens (Human), UniProt P42330). In words: AKR1C3-inhibitory activity assay (Coumberone to Coumberol fluorescence). The assay is classed as biochemical. Conditions: recombinant human AKR1C3, 15 min pre-incubation, 10 μM NADPH, 0.3 μM Coumberone. How it is done:
The AKR1C3-inhibitory activity of the substances of the present invention was measured in the AKR1C3 assay described in the paragraphs below.
Essentially, the enzyme activity is measured by quantification of the generation of Coumberol from Coumberone (Halim et al. J. AM. CHEM. SOC. 2008, 130:14123-14128 and Yee et al. Proc. Natl. Acad. Sci. USA 2006, 103:13304-13309). In this test, the increase of the highly fluorescent Coumberol by NADPH—(nicotinamide adenine dinucleotide phosphate)-dependent reduction of the non-fluorescent Coumberone by AKR1C3 was determined.
The enzyme used was recombinant human AKR1C3 (Aldo-keto reductase family 1 member C3; GenBank Accession No. NM_003739). This was expressed in E. coli as GST (glutathione S transferase) fusion protein and purified by glutathione Sepharose affinity chromatography. The GST was removed by digestion with thrombin and subsequent size exclusion chromatography (Dufort, I., Rheault, P., Huang, X F., Soucy, P., and Luu-The, V., Endocrinology 140, 568-574 (1999)).
For the assay, 50 nl of a 100-fold concentrated solution of the test substance in DMSO were pipetted into a black low-volume 384-well microtiter plate (Greiner Bio-One, Frickenhausen, Germany), 2.5 μl of a solution of AKR1C3 in assay buffer [50 mM potassium phosphate buffer pH 7, 1 mM DTT, 0.0022% (w/v) Pluronic F-127, 0.01% BSA (w/v) and protease inhibitor cocktail (Complete, EDTA-free Protease Inhibitor Cocktail from Roche)] were added and the mixture was incubated for 15 min to allow pre-binding of the substances to the enzyme prior to the enzyme reaction. The enzyme reaction was then started by addition of 2.5 μl of a solution of NADPH (20 μM→final concentration in 5 μl of assay volume is 10 μM) and Coumberone (0.6 μM→final concentration in 5 μl of assay volume is 0.3 μM) in assay buffer, and the resulting mixture was incubated at 22° C. for the reaction time of typically 90 min. The concentration of the AKR1C3 and the reaction time was adapted to the respective activity of the enzyme preparation and adjusted such that the assay was carried out in the linear range. Typical AKR1C3 concentrations were in the region of 1 nM. The reaction was stopped by addition of 2.5 μl of a stop solution consisting of 3 μM EM-1404 as inhibitor (U.S. Pat. No. 6,541,463) in 50 mM HEPES pH7.5 (3 μM EM-1404→final concentration in 7.5 μl of assay volume is 1 μM). The fluorescence of the Coumberole was then measured at 520 nm (excitation at 380 nm) using a suitable measuring instrument (Pherastar from BMG Labtechnologies). The intensity of the fluorescence was used as a measure of the amount of Coumberole formed and thus of the enzyme activity of AKR1C3. The data were normalized (enzyme reaction without inhibitor=0% inhibition; all other assay components, but no enzyme=100% inhibition).

recombinant human AKR1C3, sequence (P42330 whole entry): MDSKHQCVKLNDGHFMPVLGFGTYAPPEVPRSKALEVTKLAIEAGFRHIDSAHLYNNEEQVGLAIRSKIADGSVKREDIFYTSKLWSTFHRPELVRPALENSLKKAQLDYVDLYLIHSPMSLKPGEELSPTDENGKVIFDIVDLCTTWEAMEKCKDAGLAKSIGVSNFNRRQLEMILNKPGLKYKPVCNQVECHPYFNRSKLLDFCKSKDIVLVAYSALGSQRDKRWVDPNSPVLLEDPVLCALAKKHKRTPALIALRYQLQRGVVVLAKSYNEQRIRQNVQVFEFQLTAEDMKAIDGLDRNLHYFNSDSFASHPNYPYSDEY

For `O=C(c1cnn[nH]1)N1CC2CCC(C1)N2S(=O)(=O)c1cc(Cl)ccc1F` [Example 61, {8-[(5-chloro-2-fluorophenyl)sulfonyl]-3,8-diazabicyclo[3.2.1]oct-3-yl}(1H-1,2,3-triazol-5-yl)methanone], the IC50 (as a rule, the concentration that gives 50% inhibition) amounted to 1.5 nM.

Regarding `O=C(c1cnn[nH]1)N1CC2CCC(C1)N2S(=O)(=O)c1cc(F)c(F)cc1F` [Example 62, 1H-1,2,3-triazol-5-yl{8-[(2,4,5-trifluorophenyl)sulfonyl]-3,8-diazabicyclo[3.2.1]oct-3-yl}methanone], the half-maximal inhibitory concentration (IC50) was 2.8 nM.

For `Cc1ccc(Cl)cc1S(=O)(=O)N1C2CCC1CN(C(=O)c1cnn[nH]1)C2` [Example 63, {8-[(5-chloro-2-methylphenyl)sulfonyl]-3,8-diazabicyclo[3.2.1]oct-3-yl}(1H-1,2,3-triazol-5-yl)methanone], the 50% inhibitory concentration (IC50) was 1.7 nM.

`COc1ccccc1S(=O)(=O)N1C2CCC1CN(C(=O)c1cnn[nH]1)C2` [Example 64, {8-[(2-methoxyphenyl)sulfonyl]-3,8-diazabicyclo[3.2.1]oct-3-yl}(1H-1,2,3-triazol-5-yl)methanone]: the IC50 turned out to be 1.3 nM.

For `Cc1ccc(Br)cc1S(=O)(=O)N1C2CCC1CN(C(=O)c1cnn[nH]1)C2` [Example 65, {8-[(5-bromo-2-methylphenyl)sulfonyl]-3,8-diazabicyclo[3.2.1]oct-3-yl}(1H-1,2,3-triazol-5-yl)methanone], the IC50 came to 0.5 nM.

Regarding `O=C(c1cnn[nH]1)N1CC2CCC(C1)N2S(=O)(=O)c1ccc2c(c1)OCO2` [Example 66, [8-(1,3-benzodioxol-5-ylsulfonyl)-3,8-diazabicyclo[3.2.1]oct-3-yl](1H-1,2,3-triazol-5-yl)methanone], the IC50 was 0.9 nM.

For `COc1cc(C)ccc1S(=O)(=O)N1C2CCC1CN(C(=O)c1cnn[nH]1)C2` [Example 67, {8-[(2-methoxy-4-methylphenyl)sulfonyl]-3,8-diazabicyclo[3.2.1]oct-3-yl}(1H-1,2,3-triazol-5-yl)methanone], the IC50 came out at 1 nM.

For the compound `N#Cc1c(Cl)cccc1S(=O)(=O)N1C2CCC1CN(C(=O)c1cnn[nH]1)C2` [Example 68, 2-chloro-6-{[3-(1H-1,2,3-triazol-5-ylcarbonyl)-3,8-diazabicyclo[3.2.1]oct-8-yl]sulfonyl}benzonitrile], the IC50 came to 1.3 nM.

Consider `O=C(c1cnn[nH]1)N1CC2CCC(C1)N2S(=O)(=O)c1cccc2c1OCC2` [Example 69, [8-(2,3-dihydro-1-benzofuran-7-ylsulfonyl)-3,8-diazabicyclo[3.2.1]oct-3-yl](1H-1,2,3-triazol-5-yl)methanone], for which the IC50 was 0.6 nM.

Turning to `O=C(c1cnn[nH]1)N1CC2CCC(C1)N2S(=O)(=O)c1cc(F)ccc1Cl` [Example 70, {8-[(2-chloro-5-fluorophenyl)sulfonyl]-3,8-diazabicyclo[3.2.1]oct-3-yl}(1H-1,2,3-triazol-5-yl)methanone], the IC50 was 0.5 nM.

`O=C(c1cnn[nH]1)N1CC2CCC(C1)N2S(=O)(=O)c1cccc(F)c1Cl` [Example 71, {8-[(2-chloro-3-fluorophenyl)sulfonyl]-3,8-diazabicyclo[3.2.1]oct-3-yl}(1H-1,2,3-triazol-5-yl)methanone]: the IC50 stood at 0.8 nM.

As for `COc1cc(F)ccc1S(=O)(=O)N1C2CCC1CN(C(=O)c1cnn[nH]1)C2` [Example 72, {8-[(4-fluoro-2-methoxyphenyl)sulfonyl]-3,8-diazabicyclo[3.2.1]oct-3-yl}(1H-1,2,3-triazol-5-yl)methanone], the IC50 was found to be 1.1 nM.

Consider `COc1ccc(C#N)cc1S(=O)(=O)N1C2CCC1CN(C(=O)c1cnn[nH]1)C2` [Example 73, 4-methoxy-3-{[3-(1H-1,2,3-triazol-5-ylcarbonyl)-3,8-diazabicyclo[3.2.1]oct-8-yl]sulfonyl}benzonitrile], for which the IC50 is 28 nM.

With `N#Cc1ccc(Cl)c(S(=O)(=O)N2C3CCC2CN(C(=O)c2cnn[nH]2)C3)c1` [Example 74, 4-chloro-3-{[3-(1H-1,2,3-triazol-5-ylcarbonyl)-3,8-diazabicyclo[3.2.1]oct-8-yl]sulfonyl}benzonitrile], the IC50 was found to be 5.5 nM.
